US20260083686A1, “METHODS FOR SUPPRESSING ACCUMULATION OF REFLUX-INDUCED PROTEIN ADDUCTS” (Vanderbilt University, priority 2018, published 2026)
Entries after “also recorded” stand apart in the source; their conditions may differ.

Assays:
[1] = tested on: p53 isoLG protein adducts in EPC-2 cells; experiment: p53 immunoprecipitation and Western blot with D11 antibody for p53 isoLG adducts in BA/A-treated EPC-2 cells; format: cell-based, human; settings: 2-HOBA 50 μM, p53 (DO-1) immunoprecipitation, D11 Western blot
Experimental: To directly analyze p53 protein adducts, cellular lysates of EPC-2 cells, which were treated with BA/A in the presence or absence of 2-HOBA, were immunoprecipitated with p53 antibody. The immunoprecipitated p53 protein was then analyzed for the isoLG adducts by Western blotting with isoLG-specific D11 antibody.
Treatment With Acidic Bile Salts (BA/A) and 2-HOBA: Cells were treated in acidic DMEM media (pH 4.0), containing bile salts cocktail at final concentration of 100 μM. The bile salt cocktail was prepared with a combination of glycocholic, taurocholic, glycodeoxycholic, glycochenodeoxycholic and deoxycholic sodium salts (all reagents were from Sigma-Aldrich, St. Louis, MO) at a concentration of 20 μM each. TE-7 and HET-1A cells were treated for 30 minutes, whereas, EPC-2 cells were treated for 15 minutes and then the media was replaced. […]
For immunoprecipitation, cells were harvested by centrifugation at 200 g for 5 minutes and resuspended in PBS with protease inhibitor cocktail. […] The immunoprecipitated samples were analyzed by Western blotting with D11 antibody and anti-E tag HRP-conjugated antibodies from Abcam. The analyzed membranes were stripped in Restore™ Western Blot Stripping Buffer (ThermoFisher Scientific, Waltham, MA) at +50° C. for 1 hour, washed, and blocked with 5% milk and analyzed by Western blotting with p53 (DO1) antibody.

[2] = tested on: isoLG protein adducts (LG-lysine lactam) in TE-7 cells; experiment: LG-lysine lactam adducts by LC/ESI/MS/MS in TE-7 cells treated with acidic bile salts (BA/A); format: cell-based, human; settings: BA/A 100 μM pH 4.0 for 30 min, 2-HOBA 50 μM
From the text: Formation of LG-lysine adducts was further verified by quantification of the LG-lysyl lactam adducts using liquid chromatography-electrospray ionization-tandem mass spectrometry (LC/ESI/MS/MS) in TE-7 cells treated with BA/A. Our studies confirmed that levels of LG-lysine lactam adduct are higher in BA/A treated than control samples. Our quantification analyses were based on specific transitions from the molecular ion at m/z=479.2 to the specific fragment at m/z=332.1. The elution of the two fragment ions found in BA/A treated samples was similar to the [13C6]lysine-lactam internal standard (FIG. 2A). As an additional control, TE-7 cells were treated with BA/A as above but in the presence of known isoLG scavenger 2-hydroxybenzylamine (2HOBA) and analyzed by mass spectrometry.
Cell Lines: Human non-tumorous esophageal cell line (HET-1A) and human esophageal carcinoma cell line (TE-7) were purchased from ATCC. The morphology, karyotyping and PCR based techniques were used by ATCC to confirm the cell line identity. […]
Detection of Levuglandinyl-Lysine Lactam Using Liquid Chromatography/Electrospray Ionization/Tandem Mass Spectrometry (LC/ESI/MS/MS): Levuglandinyl-lysine lactam was analyzed in TE-7 cells treated with acidic bile salts and control untreated cells using LC/ESI/MS/MS. […]

[3] = tested on: isoLG protein adducts in esophageal tissues; experiment: Surgical (esophagojejunostomy) reflux model in mice, isoLG adducts by immunohistochemistry with D11 antibody; format: in vivo; settings: 2-HOBA 1 mg/ml in drinking water for 10 days; for accumulation of isoLG adducts in esophageal tissues in vivo: mice with surgically induced reflux
From the text: To investigate the formation of isoLG protein adducts in the esophagus, The present inventors used a surgical model of esophageal reflux injury. To generate animals with reflux, a section of the mouse jejunum was transected and then anastomosed to the esophagus resulting in an increased reflux. […] Using immunohistochemistry with D11 antibody, the present inventors compared levels of isoLG protein adducts in esophageal epithelia of animals with reflux induced by surgery and control animals with sham surgery. Levels of isoLG adducts were also analyzed in surgical animals treated with isoLG scavenger 2-HOBA for 10 days. The present inventors found significant accumulation of isoLG protein adducts in esophageal animal tissues affected by reflux.
Induction of Reflux in Mice: Reflux was induced by surgical procedure, esophagojejunal anastomosis, as previously described. Esophagojejunostomy was performed on fourteen 8-week-old 129SV mice according to the protocol approved by the Vanderbilt University Animal Care and Use Committee. Animals were then be allowed a 2-weeks recovery period on regular rodent chow ad libitum prior to were randomly assigned into two groups. First group of 7 mice with surgery was treated with 2-HOBA (1 mg/ml) delivered in drinking water for 10 days, while a control group (7 surgical animals) only received water. Additional control group of 5 animals with sham surgery received water. The esophagus and gastroesophageal junction areas from the test and control groups of animals were harvested, paraffin-embedded and analyzed by immunohistochemistry with D11 antibody. Indices of D11 positivity were scored and compared in test and control groups of animals.

## NCc1ccccc1O [2-HOBA, 2-hydroxybenzylamine]
[1]
  formation of p53 isoLG protein adducts: significantly inhibited formation of p53 protein adducts; also recorded: inhibited the formation of p53 protein adducts
[2]
  formation of isoLG protein adducts (LG-lysine lactam adduct levels): higher in BA/A-treated samples compared to control and treated with isoLG scavenger 2-HOBA
[2]; listed as 2HOBA
  formation of isoLG protein adducts (LG-lysine lactam adduct levels): inhibited formation of isoLG protein adducts
[3]
  accumulation of isoLG adducts in esophageal tissues in vivo: efficiently decreased isoLG protein adducts in mice in vivo; also recorded: prevents accumulation of isoLG adducts in vivo; also recorded: inhibited accumulation of isoLG adducts in vivo
[3]; listed as 2HOBA
  accumulation of isoLG adducts in esophageal tissues in vivo: efficiently suppresses accumulation of reflux-induced protein adducts in vitro and in vivo
[3]; mice
  isoLG adducts: surgical animals treated with 2-HOBA versus sham control animals: did not find significant difference
